Measurements taken from PubChem BioAssay (NCI).
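Protocol summary: plate cells (96-well), add compound at 5 concentrations, incubate 48 h, interpolate endpoints linearly. At the TGI there is no net growth.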

Key:
Test in all cases: DTP human tumour cell line panel, 48 h
RXF-631 renal = system: RXF-631 renal
M19-MEL melanoma = system: M19-MEL melanoma
XF 498 CNS = system: XF 498 CNS
HOP-18 NSCLC = system: HOP-18 NSCLC
DMS 273 small cell lung = system: DMS 273 small cell lung
SNB-19 CNS = system: SNB-19 CNS
DLD-1 colon = system: DLD-1 colon
KM20L2 colon = system: KM20L2 colon
LXFL 529 NSCLC = system: LXFL 529 NSCLC
DMS 114 small cell lung = system: DMS 114 small cell lung
SNB-78 CNS = system: SNB-78 CNS

COc1ccc2[nH]c3c(c2c1)[C@H]1CCC(C(C)(C)C)C[C@H]1[C@H]1C(=O)N(c2ccccc2)C(=O)[C@@H]31 (stereo partly specified) showed a TGI (RXF-631 renal) of 57.5 µM, a TGI (M19-MEL melanoma) of over 94.2 µM and a TGI (XF 498 CNS) of 31 µM. For the same compound, the TGI (HOP-18 NSCLC) was 99.6 µM, the TGI (DMS 273 small cell lung) was over 100 µM and the TGI (SNB-19 CNS) was over 51.7 µM. It also gave a TGI (DLD-1 colon) of over 96.2 µM, a TGI (KM20L2 colon) of over 100 µM and a TGI (LXFL 529 NSCLC) of over 100 µM. For the same compound, the TGI (DMS 114 small cell lung) was over 76.7 µM.
Compound O=C1c2c(Br)sc(Br)c2[C@@H](O)[C@H]1O has a TGI (SNB-19 CNS) of 38.3 µM.
Cc1ccc(S(=O)(=O)N2CCNCCN(S(=O)(=O)c3ccc(C)cc3)CCNCC2)cc1 was tested, and the TGI (SNB-19 CNS) was over 100 µM.
CC(C)OP(=O)(OC(C)C)C(C)(C)O was tested, and the TGI (SNB-19 CNS) was over 100 µM.
With O=C(NCCN1CCCCC1)c1cccc(I)c1 the TGI (SNB-19 CNS) was over 100 µM.
COc1cc(C2c3cc4c(cc3C(=O)C3CCC(=O)N32)OCO4)cc(OC)c1O (stereo unspecified) showed a TGI (SNB-19 CNS) of over 50 µM.
With O=[N+]([O-])c1cccc(Nc2nc(Cl)nc(Cl)n2)c1 the TGI (RXF-631 renal) was over 100 µM, the TGI (M19-MEL melanoma) was over 100 µM and the TGI (XF 498 CNS) was over 100 µM. For the same compound, the TGI (DMS 273 small cell lung) was over 100 µM, the TGI (SNB-19 CNS) was over 100 µM and the TGI (SNB-78 CNS) was over 100 µM. It also gave a TGI (DLD-1 colon) of over 100 µM, a TGI (KM20L2 colon) of over 100 µM and a TGI (LXFL 529 NSCLC) of over 100 µM.
Compound CCCc1nc2c(n1CC)C(=O)c1ccccc1C2=O has a TGI (SNB-19 CNS) of over 100 µM.
CC(Oc1ccc(Cl)cc1Cl)C(=O)NN1C(=O)CC(=O)N(c2ccccc2)C1=S (stereo unspecified) was tested, and the TGI (SNB-19 CNS) was over 100 µM.
With O=C(NCCNCCNC(=O)c1cc(-c2ccccc2)nc2ccccc12)c1cc(-c2ccccc2)nc2ccccc12 the TGI (SNB-19 CNS) was 24.3 µM.
For Nc1ccccc1C(=O)N=Nc1c(O)[nH]c2ccccc12, the TGI (SNB-19 CNS) was over 100 µM.
For COc1cc2cc(C(=O)N3CC(CCl)c4ccc([N+](C)(C)Cc5ccccc5[N+](=O)[O-])cc43)[nH]c2c(OC)c1OC (stereo unspecified), the TGI (SNB-19 CNS) was 9.76 µM.
O=c1oc2c3ccc4ccccc4c3n(CCN3CCCCC3)c2c2ccccc12 showed a TGI (RXF-631 renal) of over 100 µM, a TGI (M19-MEL melanoma) of over 100 µM and a TGI (XF 498 CNS) of 42.9 µM. For the same compound, the TGI (HOP-18 NSCLC) was over 100 µM, the TGI (DMS 273 small cell lung) was over 100 µM and the TGI (SNB-19 CNS) was over 100 µM. For the same compound, the TGI (SNB-78 CNS) was over 31.6 µM, the TGI (DLD-1 colon) was over 100 µM and the TGI (KM20L2 colon) was over 100 µM. For the same compound, the TGI (LXFL 529 NSCLC) was over 100 µM and the TGI (DMS 114 small cell lung) was over 100 µM.
In the case of Cc1ccc(S(=O)(=O)N/N=C2/CCC3(O)CC2(C)CCC2[C@H]3CC2(C)C)cc1 (stereo partly specified), the TGI (SNB-19 CNS) is reported as over 100 µM.
